According to ChEMBL document CHEMBL3046352, “Synthesis, anti-HSV-1, and cytotoxic activities of some new pyrazole- and isoxazole-based heterocycles” (Med Chem Res, 2011):
≈ marks a conversion by molar mass, not a printed value. Calls of active or inactive are those of the source. No cut-off for these calls is given here.

How the values were obtained:
[1] = Cytotoxicity against Chlorocebus aethiops (African green monkey) Vero cells assessed as concentration required for 50% loss of monolayer around viral plaque after 66 hr; format: cell-based; settings: chlorocebus sabaeus, read-out: Activity
Human alphaherpesvirus 1 [2] = test: Antiviral activity against Human herpesvirus 1 infected Vero cells after 66 hr; format: functional
Human alphaherpesvirus 1 [3] = test: Antiviral activity against Human herpesvirus 1 infected Vero cells assessed as reduction in viral plaque after 66 hr relative to control; format: functional; parameters: concentration or dose not given beside the values

SMILES	CC50 at 66 h [1]	MAC (Human alphaherpesvirus 1 [2])	Activity (Human alphaherpesvirus 1 [3])
NNC(=O)c1cc(-c2ccc(Cl)cc2)on1	10 µg/mL (≈ 42.1 µM)	0.1 mg/mL	43%
CC(=N/NC(=O)c1cc(-c2ccc(Cl)cc2)n(-c2ccccc2)n1)/C(Cl)=N\Nc1ccc(F)cc1	20 µg/mL (≈ 39.3 µM)	0.1 mg/mL	69%
O=C(N/N=C/c1ccc(F)cc1)c1cc(-c2ccc(Cl)cc2)n(-c2ccccc2)n1	20 µg/mL (≈ 47.7 µM)	0.1 mg/mL	67%
Clc1ccc(-c2cc(-c3nnc(Nc4ccccc4)s3)nn2-c2ccccc2)cc1	30 µg/mL (≈ 69.8 µM)	–	inactive
O=C(N/N=C/c1ccc(F)cc1)c1cc(-c2ccc(Cl)cc2)on1	10 µg/mL (≈ 29.1 µM)	–	56%
Clc1ccc(-c2cc(-c3nnc(Nc4ccccc4)s3)no2)cc1	20 µg/mL (≈ 56.4 µM)	–	inactive
O=C(NNC(=S)Nc1ccccc1)c1cc(-c2ccc(Cl)cc2)on1	20 µg/mL (≈ 53.6 µM)	0.1 mg/mL	19%
O=C(N/N=c1\scc(-c2ccc(Cl)cc2)n1-c1ccccc1)c1cc(-c2ccc(Cl)cc2)n(-c2ccccc2)n1	20 µg/mL (≈ 34.3 µM)	–	inactive
NNC(=O)c1cc(-c2ccc(Cl)cc2)n(-c2ccccc2)n1	20 µg/mL (≈ 63.9 µM)	0.1 mg/mL	65%
CC1=NN(C(=O)c2cc(-c3ccc(Cl)cc3)n(-c3ccccc3)n2)C(=O)/C1=N/Nc1ccc(F)cc1	20 µg/mL (≈ 39.9 µM)	–	inactive
C[C@@]1(CO)[C@H](O)CC[C@@]2(C)[C@H]1CC[C@H]1C[C@@H]3C[C@@]12CC[C@]3(O)CO [APHIDICOLIN]	10 µg/mL (≈ 29.5 µM)	0.005 mg/mL	100%
O=C(NNC(=S)Nc1ccccc1)c1cc(-c2ccc(Cl)cc2)n(-c2ccccc2)n1	20 µg/mL (≈ 44.6 µM)	–	inactive
O=C(N/N=C1/S/C(=C\c2ccc(F)cc2)C(=O)N1c1ccccc1)c1cc(-c2ccc(Cl)cc2)n(-c2ccccc2)n1	30 µg/mL (≈ 50.5 µM)	–	inactive
O=C(N/N=C1/S/C(=C\c2ccc(F)cc2)C(=O)N1c1ccccc1)c1cc(-c2ccc(Cl)cc2)on1	20 µg/mL (≈ 38.5 µM)	–	inactive
CC(=N/NC(=O)c1cc(-c2ccc(Cl)cc2)on1)/C(Cl)=N\Nc1ccc(F)cc1	20 µg/mL (≈ 46.1 µM)	0.1 mg/mL	51%
CC1=NN(C(=O)c2cc(-c3ccc(Cl)cc3)on2)C(=O)/C1=N/Nc1ccc(F)cc1	20 µg/mL (≈ 47 µM)	–	inactive
O=C(N/N=c1\scc(-c2ccc(Cl)cc2)n1-c1ccccc1)c1cc(-c2ccc(Cl)cc2)on1	20 µg/mL (≈ 39.4 µM)	–	inactive
O=C(NN1C(=O)c2ccccc2C1=O)c1cc(-c2ccc(Cl)cc2)on1	10 µg/mL (≈ 27.2 µM)	0.1 mg/mL	inactive
